The values that follow come from US20240083861A1, “HSD17B13 INHIBITORS AND USES THEREOF” (FL2022-001, Inc., priority 2020, published 2024).

pIC50: −log10 of the molar value.

For the experiment, the target named is T1, Recombinant human HSD17B13 enzyme (Homo sapiens, UniProt Q7Z5P4).
T1 sequence (Q7Z5P4 20-300): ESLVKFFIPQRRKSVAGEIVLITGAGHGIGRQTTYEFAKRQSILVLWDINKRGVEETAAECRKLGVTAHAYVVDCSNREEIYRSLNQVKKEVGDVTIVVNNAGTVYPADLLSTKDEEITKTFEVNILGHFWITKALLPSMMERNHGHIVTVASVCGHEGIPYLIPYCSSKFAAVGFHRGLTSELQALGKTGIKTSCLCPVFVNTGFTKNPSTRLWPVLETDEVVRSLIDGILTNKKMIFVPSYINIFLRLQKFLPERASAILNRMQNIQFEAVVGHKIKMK
As to the kind of experiment: HSD17b13 NAD(P)H-Glo biochemical assay. Conditions: 50 uM estradiol, 1 mM NAD+, NAD(P)H-Glo luminescence; read-out: HSD17β13 IC50. In a few lines: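 Luminescent NAD(P)H-Glo read-out, taken after 1 hour at RT, measured cofactor reduction. Substrate and cofactor were estradiol at 50 uM and NAD+ at 1 mM final, reacted with the recombinant human enzyme for 3 hours at 37° C in 20 mM Tris pH7.4, 0.002% Tween-20, 0.02% BSA. Compound was pre-incubated with enzyme for 20 minutes at RT.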
As a reminder, the pIC50 is −log10 of the IC50, conventionally taken in molar units. As to `Cn1nc(-c2cc(C(F)(F)F)c(F)c(O)c2F)c2cnc(N3CCOC(C4CC4)C3)nc21` (stereo not drawn) [Compound 18.59, 3-(6-(2-Cyclopropylmorpholino)-1-methyl-1H-pyrazolo[3,4-d]pyrimidin-3-y1)-2,6-difluoro-5-(trifluoromethyl)phenol], the pIC50 is over 7.00.
Take `Cn1nc(-c2cc(C(F)(F)F)c(F)c(O)c2F)c2cnc(N3CCC(N4CCOCC4)CC3)nc21` [Compound 18.60, 2,6-Difluoro-3-(1-methyl-6-(4-morpholinopiperidin-1-yl)-1H-pyrazolo[3,4-d]pyrimidin-3-y1)-5-(trifluoromethyl)phenol]: the pIC50 was 6.00 to 7.00.
The figure for `COC1(C)CCN(c2ncc3c(-c4cc(C(F)(F)F)c(F)c(O)c4F)nn(C)c3n2)CC1` [Compound 18.61, 2,6-Difluoro-3-(6-(4-methoxy-4-methylpiperidin-1-yl)-1-methyl-1H-pyrazolo[3,4-d]pyrimidin-3-yl)-5-(trifluoromethyl)phenol] is over 7.00; for `Cn1nc(-c2cc(C(F)(F)F)c(F)c(O)c2F)c2cnc(N3CCN(S(C)(=O)=O)C4(CC4)C3)nc21` [Compound 18.62, 2,6-Difluoro-3-(1-methyl-6-(4-(methylsulfony1)-4,7-diazaspiro [2.5]octan-7-y1)-1H-pyrazolo[3,4-d]pyrimidin-3-y1)-5-(trifluoromethyl)phenol] it is over 7.00.
The figure for `Cn1nc(-c2cc(C(F)(F)F)c(F)c(O)c2F)c2cnc(N3CCN(S(C)(=O)=O)C4(CCC4)C3)nc21` [Compound 18.63, 2,6-Difluoro-3-(1-methyl-6-(5-(methylsulfony1)-5,8-diazaspiro[3.5]nonan-8-yl)-1H-pyrazolo[3,4-d]pyrimidin-3-y1)-5-(trifluoromethyl)phenol] is over 7.00; for `Cn1nc(-c2cc(C(F)(F)F)c(F)c(O)c2F)c2cnc(N3CCN(S(C)(=O)=O)C(C)(C)C3)nc21` [Compound 18.64, 3-(6-(3,3-Dimethyl-4-(methylsulfonyl)piperazin-1-y1)-1-methyl-1H-pyrazolo[3,4-d]pyrimidin-3-y1)-2,6-difluoro-5-(trifluoromethyl)phenol] it is over 7.00.
The figure for `Cn1nc(-c2cc(C(F)(F)F)c(F)c(O)c2F)c2cnc(N3CCC(C)(O)CC3)nc21` [Compound 18.65, 1-(3-(2,4-Difluoro-3-hydroxy-5-(trifluoromethyl)phenyl)-1-methyl-1H-pyrazolo[3,4-d]pyrimidin-6-yl)-4-methylpiperidin-4-ol] is over 7.00; for `CCC1(O)CCN(c2ncc3c(-c4cc(C(F)(F)F)c(F)c(O)c4F)nn(C)c3n2)CC1` [Compound 18.66, 1-(3-(2,4-Difluoro-3-hydroxy-5-(trifluoromethyl)phenyl)-1-methyl-1H-pyrazolo[3,4-d]pyrimidin-6-yl)-4-ethylpiperidin-4-ol] it is over 7.00; for `CC(C)C1(O)CCN(c2ncc3c(-c4cc(C(F)(F)F)c(F)c(O)c4F)nn(C)c3n2)CC1` [Compound 18.67, 1-(3-(2,4-Difluoro-3-hydroxy-5-(trifluoromethyl)phenyl)-1-methyl-1H-pyrazolo[3,4-d]pyrimidin-6-yl)-4-isopropylpiperidin-4-ol] it is over 7.00.
On to `CCOC1(C)CCN(c2ncc3c(-c4cc(C(F)(F)F)c(F)c(O)c4F)nn(C)c3n2)CC1` [Compound 18.68, 3-(6-(4-Ethoxy-4-methylpiperidin-1-y1)-1-methyl-1H-pyrazolo[3,4-d]pyrimidin-3-y1)-2,6-difluoro-5-(trifluoromethyl)phenol], for which the negative-log IC50 (pIC50) was over 7.00.
For the molecule `CC(C)OC1CCN(c2ncc3c(-c4cc(C(F)(F)F)c(F)c(O)c4F)nn(C)c3n2)CC1` [Compound 18.69, 2,6-Difluoro-3-(6-(4-isopropoxypiperidin-1-yl)-1-methyl-1H-pyrazolo[3,4-d]pyrimidin-3-y1)-5-(trifluoromethyl)phenol], the negative-log IC50 (pIC50) is over 7.00.
As for `CCOC1CCN(c2ncc3c(-c4cc(C(F)(F)F)c(F)c(O)c4F)nn(C)c3n2)CC1` [Compound 18.70, 3-(6-(4-Ethoxypiperidin-1-y1)-1-methyl-1H-pyrazolo[3,4-d]pyrimidin-3-y1)-2,6-difluoro-5-(trifluoromethyl)phenol], the pIC50 was over 7.00.
The figure for `Cn1nc(-c2cc(C(F)(F)F)c(F)c(O)c2F)c2cnc(N3CCCC(c4ccncn4)C3)nc21` (stereo not drawn) [Compound 18.71, 2,6-Difluoro-3-(1-methyl-6-(3-(pyrimidin-4-y1)piperidin-1-yl)-1H-pyrazolo[3,4-d]pyrimidin-3-y1)-5-(trifluoromethyl)phenol] is over 7.00; for `CN1CCN(c2ncc3c(-c4cc(C(F)(F)F)c(F)c(O)c4F)nn(C)c3n2)CC1` [Compound 18.72, 2,6-Difluoro-3-(1-methyl-6-(4-methylpiperazin-1-yl)-1H-pyrazolo[3,4-d]pyrimidin-3-y1)-5-(trifluoromethyl)phenol] it is 6.00 to 7.00; for `CC(C)N1CCN(c2ncc3c(-c4cc(C(F)(F)F)c(F)c(O)c4F)nn(C)c3n2)CC1` [Compound 18.73, 2,6-Difluoro-3-(6-(4-isopropylpiperazin-1-yl)-1-methyl-1H-pyrazolo[3,4-d]pyrimidin-3-yl)-5-(trifluoromethyl)phenol] it is 6.00 to 7.00.
For the molecule `Cn1nc(-c2cc(C(F)(F)F)c(F)c(O)c2F)c2cnc(N3CC4CC(C3)N4S(C)(=O)=O)nc21` [Compound 18.74, 2,6-Difluoro-3-(1-methyl-6-(6-(methylsulfony1)-3,6-diazabicyclo[3.1.1]heptan-3-yl)-1H-pyrazolo[3,4-d]pyrimidin-3-y1)-5-(trifluoromethyl)phenol], the pIC50 is 6.00 to 7.00.
Then `Cn1nc(-c2cc(C(F)(F)F)c(F)c(O)c2F)c2cnc(N3CCNCC3)nc21` [Compound 18.75, 2,6-Difluoro-3-(1-methyl-6-(piperazin-1-y1)-1H-pyrazolo[3,4-d]pyrimidin-3-y1)-5-(trifluoromethyl)phenol], with 6.00 to 7.00; and `Cn1nc(-c2cc(C(F)(F)F)c(F)c(O)c2F)c2cnc(N3CCCC(c4ncccn4)C3)nc21` (stereo not drawn) [Compound 18.76, 2,6-Difluoro-3-(1-methyl-6-(3-(pyrimidin-2-y1)piperidin-1-yl)-1H-pyrazolo[3,4-d]pyrimidin-3-y1)-5-(trifluoromethyl)phenol], with over 7.00.
Then `COC1CCN(c2ncc3c(-c4cc(C(F)(F)F)c(F)c(O)c4F)nn(C)c3n2)CC1` [Compound 18.77, 2,6-Difluoro-3-(6-(4-methoxypiperidin-1-y1)-1-methyl-1H-pyrazolo[3,4-d]pyrimidin-3-yl)-5-(trifluoromethyl)phenol], with over 7.00.
The figure for `Cn1nc(-c2cc(C(F)(F)F)c(F)c(O)c2F)c2cnc(N3CCOC(c4nnc[nH]4)C3)nc21` (stereo not drawn) [Compound 18.78, 3-(6-(2-(4H-1,2,4-Triazol-3-yl)morpholino)-1-methyl-1H-pyrazolo[3,4-d]pyrimidin-3-y1)-2,6-difluoro-5-(trifluoromethyl)phenol] is 6.00 to 7.00; for `Cn1nc(-c2cc(C(F)(F)F)c(F)c(O)c2F)c2cnc(N3CCOC(c4ncc[nH]4)C3)nc21` (stereo not drawn) [Compound 18.79, 3-(6-(2-(1H-Imidazol-2-yl)morpholino)-1-methyl-1H-pyrazolo[3,4-d]pyrimidin-3-y1)-2,6-difluoro-5-(trifluoromethyl)phenol] it is 6.00 to 7.00; for `Cn1nc(-c2cc(C(F)(F)F)c(F)c(O)c2F)c2cnc(N3CCOC(c4nccs4)C3)nc21` (stereo not drawn) [Compound 18.80, 2,6-Difluoro-3-(1-methyl-6-(2-(thiazol-2-yl)morpholino)-1H-pyrazolo[3,4-d]pyrimidin-3-y1)-5-(trifluoromethyl)phenol] it is over 7.00.
For the molecule `Cn1nc(-c2cc(C(F)(F)F)c(F)c(O)c2F)c2cnc(N3CCOC(c4ncon4)C3)nc21` (stereo not drawn) [Compound 18.81, 3-(6-(2-(1,2,4-Oxadiazol-3-yl)morpholino)-1-methyl-1H-pyrazolo[3,4-d]pyrimidin-3-y1)-2,6-difluoro-5-(trifluoromethyl)phenol], the negative-log IC50 (pIC50) was over 7.00.
Then `Cn1nc(-c2cc(C(F)(F)F)c(F)c(O)c2F)c2cnc(N3CCOC(c4cc[nH]n4)C3)nc21` (stereo not drawn) [Compound 18.82, 3-(6-(2-(1H-Pyrazol-3-yl)morpholino)-1-methyl-1H-pyrazolo[3,4-d]pyrimidin-3-y1)-2,6-difluoro-5-(trifluoromethyl)phenol], with over 7.00; and `Cn1nc(-c2cc(C(F)(F)F)c(F)c(O)c2F)c2cnc(N3CCN(S(C)(=O)=O)C4(CCCC4)C3)nc21` [Compound 18.83, 2,6-Difluoro-3-(1-methyl-6-(6-(methylsulfonyl)-6,9-diazaspiro[4.5]decan-9-yl)-1H-pyrazolo[3,4-d]pyrimidin-3-y1)-5-(trifluoromethyl)phenol], with over 7.00.
The figure for `Cn1nc(-c2cc(C(F)(F)F)c(F)c(O)c2F)c2cnc(N3CCN(S(C)(=O)=O)C4(CCCCC4)C3)nc21` [Compound 18.84, 2,6-Difluoro-3-(1-methyl-6-(1-(methylsulfony1)-1,4-diazaspiro[5.5]undecan-4-yl)-1H-pyrazolo[3,4-d]pyrimidin-3-y1)-5-(trifluoromethyl)phenol] is over 7.00; for `Cn1nc(-c2cc(C(F)(F)F)c(F)c(O)c2F)c2cnc(N3CCN(S(C)(=O)=O)C4(CCOCC4)C3)nc21` [Compound 18.85, 2,6-Difluoro-3-(1-methyl-6-(1-(methylsulfony1)-9-oxa-1,4-diazaspiro[5.5]undecan-4-y1)-1H-pyrazolo[3,4-d]pyrimidin-3-y1)-5-(trifluoromethyl)phenol] it is over 7.00.
